One test has as its target memapsin 2 (Homo sapiens, UniProt P56817). The test is described as follows: Inhibition of memapsin 2 beta-secretase activity toward fluorogenic substrate FS-2. Format: biochemical. The settings on record: memapsin 2, pH 4, 37° C., 20 minutes pre-incubation, substrate FS-2; read-out: M2Ki. Put shortly:
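Memapsin 2 was preincubated with compound 20 min at pH 4, 37 °C, then reacted with fluorogenic substrate FS-2 (MCA-SEVNLDAEFK-DNP), an APP-derived Swedish-variant peptide. Inhibition was followed kinetically by fluorescence.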

For test [1], the system named is Aβ production in Chinese hamster ovary cells that over-express human APP695 with the London and Swedish mutations. The test is described as follows: Cellular Aβ IC50 determination (Aβ40 sandwich ELISA). The format is cell-based. The settings on record: Cricetulus griseus; Aβ40 in CHO cells over-expressing human APP695, 24 h incubation. Summed up:
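APP695 (London/Swedish)-overexpressing CHO cells were treated 48 h after seeding with serial dilutions from near 4 μM top concentration (0.4% DMSO) for 24 h at 37 °C. Secreted Aβ40 was quantified by sandwich ELISA relative to controls and fit to a 4-parameter IC50 model.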

Sequence of memapsin 2 (P56817 46-501): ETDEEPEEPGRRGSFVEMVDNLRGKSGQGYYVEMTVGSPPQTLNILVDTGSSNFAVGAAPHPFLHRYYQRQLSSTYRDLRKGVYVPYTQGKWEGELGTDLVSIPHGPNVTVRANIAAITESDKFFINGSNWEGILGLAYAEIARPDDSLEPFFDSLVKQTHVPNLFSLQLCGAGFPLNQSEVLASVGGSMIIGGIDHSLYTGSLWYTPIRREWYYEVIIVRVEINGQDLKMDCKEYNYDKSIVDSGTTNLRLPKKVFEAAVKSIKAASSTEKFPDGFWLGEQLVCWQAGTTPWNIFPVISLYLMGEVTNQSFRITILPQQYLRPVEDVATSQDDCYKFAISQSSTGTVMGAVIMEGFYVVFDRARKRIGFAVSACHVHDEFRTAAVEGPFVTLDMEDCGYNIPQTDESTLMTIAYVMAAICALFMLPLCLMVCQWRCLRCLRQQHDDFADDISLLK

Regarding `Cc1csc([C@H]2CCCN2C(=O)c2cc(CF)cc(C(=O)N[C@@H](Cc3ccccc3)[C@H](O)CNCc3cncc(C(C)(C)F)c3)c2)n1` [Compound 50, 3-(fluoromethyl)-N-((2S,3R)-4-((5-(2-fluoropropan-2-yl)pyridin-3-yl)methylamino)-3-hydroxy-1-phenylbutan-2-yl)-5-((R)-2-(4-methylthiazol-2-yl)pyrrolidine-1-carbonyl)benzamide], the Ki on memapsin 2 is less than 100 nM. For the same compound, in test [1], the IC50 was less than 300 nM.

With `Cc1coc([C@H]2CCCN2C(=O)c2cc(C(=O)N[C@@H](Cc3ccccc3)[C@H](O)CNCc3cncc(C(C)C)c3)cc(-c3ncco3)c2)n1` [Compound 86, N-((2S,3R)-3-hydroxy-4-((5-isopropylpyridin-3-yl)methylamino)-1-phenylbutan-2-yl)-3-((R)-2-(4-methyloxazol-2-yl)pyrrolidine-1-carbonyl)-5-(oxazol-2-yl)benzamide], the Ki on memapsin 2 is less than 100 nM. In test [1], the IC50 is less than 300 nM.

For the compound `Cc1csc([C@H]2CCCN2C(=O)c2cccc(C(=O)N[C@@H](Cc3ccccc3)[C@H](O)CNCc3cccc(Cl)c3)c2)n1` [Compound 17, N-((2S,3R)-4-(3-chlorobenzylamino)-3-hydroxy-1-phenylbutan-2-yl)-3-((R)-2-(4-methylthiazol-2-yl)pyrrolidine-1-carbonyl)benzamide], the Ki on memapsin 2 is less than 100 nM. The 50% inhibitory concentration (IC50) in test [1] is less than 300 nM.

In the case of `Cc1csc([C@H]2CCCN2C(=O)c2cncc(C(=O)N[C@@H](Cc3ccccc3)[C@H](O)CNCc3cncc(C(C)(C)F)c3)c2)n1` [Compound 44, N-((2S,3R)-4-((5-(2-fluoropropan-2-yl)pyridin-3-yl)methylamino)-3-hydroxy-1-phenylbutan-2-yl)-5-((R)-2-(4-methylthiazol-2-yl)pyrrolidine-1-carbonyl)nicotinamide], the Ki at memapsin 2 is less than 100 nM. Moreover, the half-inhibitory concentration (IC50) in test [1] is less than 300 nM.

For `Cc1coc([C@H]2CCCN2C(=O)c2cc(CF)cc(C(=O)N[C@@H](Cc3ccccc3)[C@H](O)CNCc3cccc(C(F)(F)F)c3)c2)n1` [Compound 82, 3-(fluoromethyl)-N-((2S,3R)-3-hydroxy-1-phenyl-4-(3-(trifluoromethyl)benzylamino)butan-2-yl)-5-((R)-2-(4-methyloxazol-2-yl)pyrrolidine-1-carbonyl)benzamide], the Ki on memapsin 2 is less than 100 nM. The compound also gave an IC50 in test [1] of less than 300 nM.

`Cc1coc([C@H]2CCCN2C(=O)c2cncc(C(=O)N[C@@H](Cc3ccccc3)[C@H](O)CNCc3cccc(C(C)(C)C)c3)c2)n1` [Compound 76, N-((2S,3R)-4-(3-tert-butylbenzylamino)-3-hydroxy-1-phenylbutan-2-yl)-5-((R)-2-(4-methyloxazol-2-yl)pyrrolidine-1-carbonyl)nicotinamide]: the Ki at memapsin 2 is less than 100 nM. In addition, the IC50 in test [1] is less than 300 nM.

`Cc1csc([C@H]2CCCN2C(=O)c2cc(C(=O)N[C@@H](Cc3ccccc3)[C@H](O)CNCc3cccc(C(F)(F)F)c3)ccn2)n1` [Compound 64, N-((2S,3R)-3-hydroxy-1-phenyl-4-(3-(trifluoromethyl)benzylamino)butan-2-yl)-2-((R)-2-(4-methylthiazol-2-yl)pyrrolidine-1-carbonyl)isonicotinamide]: the Ki on memapsin 2 is less than 100 nM. Moreover, the IC50 in test [1] is less than 300 nM.

`Cc1csc([C@H]2CCCN2C(=O)c2cc(C(=O)N[C@@H](Cc3ccccc3)[C@H](O)CNCc3cccc(C(F)(F)F)c3)cc(N(C)C)c2)n1` [Compound 30, 3-(dimethylamino)-N-((2S,3R)-3-hydroxy-1-phenyl-4-(3-(trifluoromethyl)benzylamino)butan-2-yl)-5-((R)-2-(4-methylthiazol-2-yl)pyrrolidine-1-carbonyl)benzamide]: on memapsin 2, the Ki is less than 100 nM. The compound further yielded an IC50 in test [1] of less than 300 nM.

As for `Cc1coc([C@H]2CCCN2C(=O)c2cc(C(=O)N[C@@H](Cc3ccccc3)[C@H](O)CNCc3cncc(C(C)C)c3)cc(N(C)C)c2)n1` [Compound 92, 3-(dimethylamino)-N-((2S,3R)-3-hydroxy-4-((5-isopropylpyridin-3-yl)methylamino)-1-phenylbutan-2-yl)-5-((R)-2-(4-methyloxazol-2-yl)pyrrolidine-1-carbonyl)benzamide], at memapsin 2, the Ki is less than 100 nM. In addition, the IC50 in test [1] was less than 300 nM.

Regarding `Cc1csc([C@H]2CCCN2C(=O)c2cc(C(=O)N[C@@H](Cc3ccccc3)[C@H](O)CNCc3cncc(C(C)C)c3)cc(N(C)C)c2)n1` [Compound 29, 3-(dimethylamino)-N-((2S,3R)-3-hydroxy-4-((5-isopropylpyridin-3-yl)methylamino)-1-phenylbutan-2-yl)-5-((R)-2-(4-methylthiazol-2-yl)pyrrolidine-1-carbonyl)benzamide], the Ki on memapsin 2 is less than 100 nM. Moreover, the IC50 in test [1] was less than 300 nM.

Regarding `Cc1csc([C@H]2CCCN2C(=O)c2cc(C(=O)N[C@@H](Cc3ccccc3)[C@H](O)CNCc3cncc(C(C)C)c3)cc(-c3cnccn3)c2)n1` [Compound 43, N-((2S,3R)-3-hydroxy-4-((5-isopropylpyridin-3-yl)methylamino)-1-phenylbutan-2-yl)-3-((R)-2-(4-methylthiazol-2-yl)pyrrolidine-1-carbonyl)-5-(pyrazin-2-yl)benzamide], the Ki at memapsin 2 was less than 100 nM. This compound had a concentration for half-maximal inhibition (IC50) in test [1] of less than 300 nM.

On to `COc1cc(C(=O)N[C@@H](Cc2ccccc2)[C@H](O)CNCc2cccc(C(C)(C)C)c2)cc(C(=O)N2CCC[C@@H]2c2nc(C)cs2)c1` [Compound 16, N-((2S,3R)-4-(3-tert-butylbenzylamino)-3-hydroxy-1-phenylbutan-2-yl)-3-methoxy-5-((R)-2-(4-methylthiazol-2-yl)pyrrolidine-1-carbonyl)benzamide], for which the Ki on memapsin 2 is less than 100 nM. Also, the 50% inhibitory concentration (IC50) in test [1] is less than 300 nM.

As for `Cc1csc([C@H]2CCCN2C(=O)c2cccc(C(=O)N[C@@H](Cc3ccccc3)[C@H](O)CNCc3cc(C)on3)c2)n1` [Compound 66, N-((2S,3R)-3-hydroxy-4-((5-methylisoxazol-3-yl)methylamino)-1-phenylbutan-2-yl)-3-((R)-2-(4-methylthiazol-2-yl)pyrrolidine-1-carbonyl)benzamide], at memapsin 2, the Ki was less than 100 nM. Also, the IC50 in test [1] is less than 300 nM.

On to `Cc1csc([C@H]2CCCN2C(=O)c2cncc(C(=O)N[C@@H](Cc3ccccc3)[C@H](O)CNCc3cccc(C(C)(C)C)c3)c2)n1` [Compound 32, N-((2S,3R)-4-(3-tert-butylbenzylamino)-3-hydroxy-1-phenylbutan-2-yl)-5-((R)-2-(4-methylthiazol-2-yl)pyrrolidine-1-carbonyl)nicotinamide], for which the Ki on memapsin 2 was in the range of 101 to 200 nM. Further, the IC50 in test [1] is less than 300 nM.

In the case of `Cc1coc([C@H]2CCCN2C(=O)c2cncc(C(=O)N[C@@H](Cc3ccccc3)[C@H](O)CNCc3cncc(C(C)C)c3)c2)n1` [Compound 71, N-((2S,3R)-3-hydroxy-4-((5-isopropylpyridin-3-yl)methylamino)-1-phenylbutan-2-yl)-5-((R)-2-(4-methyloxazol-2-yl)pyrrolidine-1-carbonyl)nicotinamide], the Ki on memapsin 2 was less than 100 nM. The compound also yielded a 50% inhibitory concentration (IC50) in test [1] of less than 300 nM.

For the compound `Cc1csc([C@H]2CCCN2C(=O)c2cc(C(=O)N[C@@H](Cc3ccccc3)[C@H](O)CNCc3cccc(Cl)c3)cc(N(C)C)c2)n1` [Compound 47, N-((2S,3R)-4-(3-chlorobenzylamino)-3-hydroxy-1-phenylbutan-2-yl)-3-(dimethylamino)-5-((R)-2-(4-methylthiazol-2-yl)pyrrolidine-1-carbonyl)benzamide], the Ki on memapsin 2 is less than 100 nM. Further, in test [1], the IC50 was less than 300 nM.

In the case of `Cc1cc(C(=O)N[C@@H](Cc2ccccc2)[C@H](O)CNCc2cccc(C(F)(F)F)c2)cc(C(=O)N2CCC[C@@H]2c2nc(C)co2)n1` [Compound 84, N-((2S,3R)-3-hydroxy-1-phenyl-4-(3-(trifluoromethyl)benzylamino)butan-2-yl)-2-methyl-6-((R)-2-(4-methyloxazol-2-yl)pyrrolidine-1-carbonyl)isonicotinamide], the Ki at memapsin 2 is less than 100 nM. For the same compound, in test [1], the IC50 was less than 300 nM.

As to `Cc1csc([C@H]2CCCN2C(=O)c2cc(C(=O)N[C@@H](Cc3ccccc3)[C@H](O)CNCc3cccc(C(F)(F)F)c3)nc(N(C)C)c2)n1` [Compound 81, 6-(dimethylamino)-N-((2S,3R)-3-hydroxy-1-phenyl-4-(3-(trifluoromethyl)benzylamino)butan-2-yl)-4-((R)-2-(4-methylthiazol-2-yl)pyrrolidine-1-carbonyl)picolinamide], at memapsin 2, the Ki is less than 100 nM. In test [1], this compound displayed an IC50 of less than 300 nM.

Take `Cc1csc([C@H]2CCCN2C(=O)c2cncc(C(=O)N[C@@H](Cc3ccccc3)[C@H](O)CNCc3cc(Cl)cc(Cl)c3)c2)n1` [Compound 60, N-((2S,3R)-4-(3,5-dichlorobenzylamino)-3-hydroxy-1-phenylbutan-2-yl)-5-((R)-2-(4-methylthiazol-2-yl)pyrrolidine-1-carbonyl)nicotinamide]: the Ki at memapsin 2 is less than 100 nM. Besides, the IC50 in test [1] is less than 300 nM.

On to `Cc1csc([C@H]2COCN2C(=O)c2cccc(C(=O)N[C@@H](Cc3ccccc3)[C@H](O)CNCc3cccc(C(F)(F)F)c3)c2)n1` [Compound 26, N-((2S,3R)-3-hydroxy-1-phenyl-4-(3-(trifluoromethyl)benzylamino)butan-2-yl)-3-((R)-4-(4-methylthiazol-2-yl)oxazolidine-3-carbonyl)benzamide], for which the Ki on memapsin 2 is less than 100 nM. For the same compound, in test [1], the IC50 was less than 300 nM.

`Cc1cc(CNC[C@@H](O)[C@H](Cc2ccccc2)NC(=O)c2cccc(C(=O)N3CCC[C@@H]3c3nc(C)cs3)c2)on1` [Compound 65, N-((2S,3R)-3-hydroxy-4-((3-methylisoxazol-5-yl)methylamino)-1-phenylbutan-2-yl)-3-((R)-2-(4-methylthiazol-2-yl)pyrrolidine-1-carbonyl)benzamide]: the Ki at memapsin 2 is greater than 201 nM. Moreover, in test [1], the IC50 was in the range of 301 to 500 nM.

A word on the IC50: it is the midpoint of a concentration-inhibition curve. High values mean lower potency, low ones higher potency.

Values taken from patent publication US8299267B2, “(3-hydroxy-4-amino-butan-2-yl) -3- (2-thiazol-2-yl-pyrrolidine-1-carbonyl) benzamide derivatives and related compounds as beta-secretase inhibitors for treating” (CoMentis, Inc., priority 2007, dated 2012).
